Values quoted from earlier work in patent US6951873B1, “Methods for treating age-related behavioral disorders in companion animals” (priority 1999, dated 2005).

Tested on: aged-impaired dogs
Conditions: spatial memory model sensitive to age-dependent cognitive impairment

C#CCN(C)[C@H](C)Cc1ccccc1.Cl [selegiline chloride]
Performance of aged-impaired dogs on this test: improved
